In US7375086B2, “Modulators of Nod2 signaling” (The Regents of the University of Michigan, priority 2000, dated 2008):
Entries after “also recorded” stand apart in the source; their conditions may differ.

Columns and labels:
IL-1β mRNA = test: Quantitative RT-PCR of IL-1β transcripts in PBMNC; assay type: cell-based, human; conditions: normal or heterozygous NOD2 alleles, LPS 1 μg/ml, MDP 10 ng/ml
Experimental: (§1) FIGS. 20C and D show PBMNC analyzed for expression of IL-1β (C) and A1 (D) transcripts by quantitative RT-PCR.
(§2) Genotyping was performed using a ddNTP primer extension system. Nuclear extracts from LPS-stimulated cells were pre-incubated with antibody specific for p50 subunit of NF-κB to monitor the size of the NF-κB-DNA complex. cDNA was amplified with specific primers for human IL-1β, glyceraldehyde-3-phosphate-dehydrogenase (GAPDH) as described (5) and A1 (5′-[…]-3′ (SEQ ID NO: 53) and 5′-[…]-3′ (SEQ ID NO:54)). The levels of IL-1β and A1 transcripts normalized to that of GAPDH were expressed relative to those in untreated cells that were considered as baseline. Specificity of the desired PCR products was determined by melting curve analysis. Histograms represent the mean ±S.D. of triplicate analyses.
(§3) To further assess NF-κB activation, the mRNA levels of EL-1β and A1, two NF-κB target genes expressed in PBMNC (Cogswell et al., J. Immunol. 153:712 [1994]; Zong et al., Genes Dev. 13:384 [1999]), were evaluated by quantitative real-time polymerase-chain reaction (RT-PCR) analysis. Both IL-1β and A1 mRNA levels were induced by incubation with LPS and MDP in cells from individuals carrying normal or heterozygous NOD2 alleles (FIG. 20C and 20D). […] Thus, PBMNC require the expression of normal NOD2 for their response to MDP but not to LPS.

P268S/G908R NOD2 = target: T1, P268S/G908R NOD2 (Homo sapiens, UniProt Q9HC29, G908R/P268S); test: NF-κB reporter assay in HEK293T cells expressing P268S/G908R NOD2; assay type: cell-based; conditions: 100 ng/ml MDP
T1 construct: expressed in transfected cells; host or cells: HEK293T
T1 sequence (Q9HC29 whole entry P268S/G908R): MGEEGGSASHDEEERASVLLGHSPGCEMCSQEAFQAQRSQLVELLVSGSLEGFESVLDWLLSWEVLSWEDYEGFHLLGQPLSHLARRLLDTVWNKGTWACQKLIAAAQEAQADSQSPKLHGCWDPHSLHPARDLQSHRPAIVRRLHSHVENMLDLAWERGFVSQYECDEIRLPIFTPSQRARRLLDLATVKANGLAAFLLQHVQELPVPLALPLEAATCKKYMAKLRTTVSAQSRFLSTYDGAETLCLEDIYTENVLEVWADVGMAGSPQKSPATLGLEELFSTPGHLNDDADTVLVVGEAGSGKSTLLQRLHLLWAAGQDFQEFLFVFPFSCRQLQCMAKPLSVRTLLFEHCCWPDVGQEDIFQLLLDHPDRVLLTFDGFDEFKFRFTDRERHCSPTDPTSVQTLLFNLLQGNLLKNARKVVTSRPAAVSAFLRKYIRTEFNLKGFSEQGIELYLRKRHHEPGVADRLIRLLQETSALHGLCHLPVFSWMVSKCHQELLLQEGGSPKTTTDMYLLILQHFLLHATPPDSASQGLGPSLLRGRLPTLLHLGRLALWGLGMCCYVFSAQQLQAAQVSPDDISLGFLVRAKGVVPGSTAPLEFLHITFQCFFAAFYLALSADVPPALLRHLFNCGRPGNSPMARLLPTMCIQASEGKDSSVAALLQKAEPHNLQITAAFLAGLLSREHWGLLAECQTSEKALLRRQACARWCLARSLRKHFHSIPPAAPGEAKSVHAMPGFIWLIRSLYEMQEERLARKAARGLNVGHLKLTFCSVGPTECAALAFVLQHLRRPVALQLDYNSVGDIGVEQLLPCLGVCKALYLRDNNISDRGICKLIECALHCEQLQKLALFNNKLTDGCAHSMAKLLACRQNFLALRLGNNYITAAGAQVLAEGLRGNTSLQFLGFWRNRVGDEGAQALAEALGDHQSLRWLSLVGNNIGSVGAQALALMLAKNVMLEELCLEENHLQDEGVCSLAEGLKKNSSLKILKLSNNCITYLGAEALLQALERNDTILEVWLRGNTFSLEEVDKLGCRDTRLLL
Experimental: (§4) HEK293T cells were transfected with 0.3 μg of pMX-puro expressing normal Nod2 or mutants carrying P268S (SEQ ID NOs:56 (nucleic acid) and 57 (amino acid), P268S/R702W (SEQ ID NOs: 57 (nucleic acid) and 58 (amino acid)), P268S/G908 (SEQ ID NOs: 60 (nucleic acid) and 61 (amino acid)), P268S/L1007fsinsC (SEQ ID NOs: 54 (nucleic acid) and 55 (amino acid)) or empty plasmid (−). Eight hours post-transfection, 100 ng/ml MDP was added to the cultured cells and at 24 hours post-transfection NF-κB activity was determined as described in FIG. 1A. Values represent the normalized mean data ±S.D. of triplicate cultures. The results shown are representative of three separate experiments.

A1 mRNA = test: Quantitative RT-PCR of A1 transcripts in PBMNC; assay type: cell-based, human; conditions: LPS 1 μg/ml, MDP 10 ng/ml
Experimental: as §1, §2, §3

P268S/R702W NOD2 = target: T2, P268S/R702W NOD2 (Homo sapiens, UniProt Q9HC29, P268S/R702W); test: NF-κB reporter assay in HEK293T cells expressing P268S/R702W NOD2; assay type: cell-based; conditions: 100 ng/ml MDP
T2 construct: expressed in transfected cells; host or cells: HEK293T
T2 sequence (Q9HC29 whole entry P268S/R702W): as the sequence (Q9HC29 whole entry P268S/G908R) above, with R702W, R908G counted along it
Experimental: as §4

P268S NOD2 = target: T3, P268S NOD2 (Homo sapiens, UniProt Q9HC29, P268S); test: NF-κB reporter assay in HEK293T cells expressing P268S NOD2; assay type: cell-based; conditions: 100 ng/ml MDP
T3 construct: expressed in transfected cells; host or cells: HEK293T
T3 sequence (Q9HC29 whole entry P268S): as the sequence (Q9HC29 whole entry P268S/G908R) above, with R908G counted along it
Experimental: as §4

Nod2 = target: T4, Nod2 (Homo sapiens, UniProt Q9HC29, R703H); test: NF-κB reporter assay in HEK293T/HEK293 cells expressing Nod2; assay type: cell-based
T4 construct: ligated to generate an unique cDNA containing the entire open reading frame of Nod2; expressed in transfected cells; host or cells: HEK293T
T4 sequence (Q9HC29 whole entry R703H): as the sequence (Q9HC29 whole entry P268S/G908R) above, with S268P, R703H, R908G counted along it

P268S/L1007fsinsC NOD2 = target: T5, P268S/L1007fsinsC NOD2 (Homo sapiens, UniProt Q9HC29, P268S); test: NF-κB reporter assay in HEK293T cells expressing P268S/L1007fsinsC NOD2; assay type: cell-based; conditions: 100 ng/ml MDP
T5 construct: expressed in transfected cells; host or cells: HEK293T
T5 sequence (Q9HC29 with tags, fused parts or gaps P268S): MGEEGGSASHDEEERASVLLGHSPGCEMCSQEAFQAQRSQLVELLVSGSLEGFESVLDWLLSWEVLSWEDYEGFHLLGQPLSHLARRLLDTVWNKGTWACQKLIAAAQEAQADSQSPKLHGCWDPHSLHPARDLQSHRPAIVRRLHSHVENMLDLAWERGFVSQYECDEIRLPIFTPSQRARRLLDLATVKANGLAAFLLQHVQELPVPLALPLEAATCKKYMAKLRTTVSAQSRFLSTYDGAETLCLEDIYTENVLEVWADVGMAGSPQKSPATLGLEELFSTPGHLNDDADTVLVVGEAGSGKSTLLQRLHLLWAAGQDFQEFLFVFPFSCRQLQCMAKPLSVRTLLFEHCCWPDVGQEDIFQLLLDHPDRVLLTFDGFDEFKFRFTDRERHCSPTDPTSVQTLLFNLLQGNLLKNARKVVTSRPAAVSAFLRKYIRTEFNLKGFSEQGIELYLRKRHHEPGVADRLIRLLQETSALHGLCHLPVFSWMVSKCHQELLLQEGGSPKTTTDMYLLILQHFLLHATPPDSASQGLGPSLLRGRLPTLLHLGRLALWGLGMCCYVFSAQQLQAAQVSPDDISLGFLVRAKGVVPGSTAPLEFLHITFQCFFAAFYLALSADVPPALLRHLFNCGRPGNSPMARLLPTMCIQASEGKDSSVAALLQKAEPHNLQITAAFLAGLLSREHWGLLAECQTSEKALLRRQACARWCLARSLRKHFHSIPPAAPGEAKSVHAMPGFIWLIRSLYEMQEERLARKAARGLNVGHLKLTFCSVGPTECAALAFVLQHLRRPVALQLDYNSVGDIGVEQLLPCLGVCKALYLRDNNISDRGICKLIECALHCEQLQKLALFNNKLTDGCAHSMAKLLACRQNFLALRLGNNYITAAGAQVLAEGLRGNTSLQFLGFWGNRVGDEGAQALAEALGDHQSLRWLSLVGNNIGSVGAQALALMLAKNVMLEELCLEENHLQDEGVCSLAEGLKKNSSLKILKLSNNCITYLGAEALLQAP
Experimental: as §4

NF-κB = NF-κB binding activity by EMSA in nuclear extracts of PBMNC; assay type: cell-based, human; conditions: 1 μg/ml LPS from Salmonella typhimurium, 10 ng/ml MDP, 1 hour; for response of PBMNC (NF-κB-DNA complex, EMSA): PBMNC from individuals homozygous for L1007fsinsC
Experimental: as §1, §2
The NOD2 variants associated with Crohn's disease, R702W, G908R and L1007fsinsC, occur on the same haplotype background, which includes the common P268S polymorphism (Hugot et al., Nature 411:599 [2001]; Ogura et al., Nature 411:603 [2001]). To compare the ability of normal and mutant NOD2 proteins to induce NF-κB activity in response to MDP, the NOD2 proteins were expressed in cells and evaluated in a functional assay. […] The role of NOD2 in the recognition of MDP by primary cells from normal and Crohn's disease patients was next determined. A panel of healthy and Crohn's disease individuals were genotyped for the disease-associated NOD2 alleles and two individuals (one without clinical evidence of disease and one individual with Crohn's disease) who were homozygous for the loss-of-function L1007fsinsC mutation were identified (FIG. 20A). The identification of apparently healthy individuals homozygous for L1007fsinsC is expected in that the penetrance of the L1007fsinsC mutation is not complete (Hugot et al., supra; Ogura et al., supra; Hampe et al., Lancet 357:1925 [2001]; Ahmad et al., Gastroenterology 122:854 [2002]). Peripheral blood mononuclear cells (PBMNC) that are known to express NOD2 were isolated, incubated with MDP or LPS and NF-κB activation was assessed in nuclear extracts by an electrophoretic mobility shift assay (EMSA).

stimulation of NOD2 activity (Nod2; HEK293 cells, 0.3 ng pcDNA3-Nod2, MDP 100 ng/ml, sBLP 1000 ng/ml (FIG. 18D)): stimulated NOD2 activity
response of PBMNC (NF-κB-DNA complex, EMSA) (NF-κB): but not to MDP
response of PBMNC (NF-κB-DNA complex, EMSA) (NF-κB; listed as muramyl dipeptide): defective in their response
Compound: CC(=O)N[C@@H]1[C@@H](O[C@H](C)C(=O)N[C@@H](C)C(=O)N[C@H](CCC(=O)O)C(N)=O)[C@H](O)[C@@H](CO)O[C@H]1O [MDP, MurNAc-L-Ala-D-isoGln]
IL-1β mRNA levels (IL-1β mRNA): induced
NF-κB activation in response to MDP, P268S/G908R variant compared to normal NOD2 (P268S/G908R NOD2): greatly reduced levels of NF-κB activation
A1 mRNA levels (A1 mRNA; homozygous for L1007fsinsC): but not MDP
A1 mRNA levels (A1 mRNA; normal or heterozygous NOD2 alleles): induced
NF-κB activation in response to MDP, P268S/R702W variant compared to normal NOD2 (P268S/R702W NOD2): greatly reduced levels of NF-κB activation; also recorded: retained some ability to respond
NF-κB activation in response to MDP, P268S NOD2 (P268S NOD2): induced similar levels of NF-κB activation
NOD2-dependent stimulation of NF-κB by synthetic muropeptides (Nod2; HEK293T cells, 66 ng pMX-puro-NOD2 (FIG. 18B)): induced potent stimulation of NOD2; also recorded: induced Nod2-dependent activation of NF-κB
NF-κB activation in response to MDP, normal NOD2 (Nod2; HEK293T cells, 100 ng/ml MDP): induced similar levels of NF-κB activation
NF-κB activation in response to MDP, P268S/L1007fsinsC variant compared to normal NOD2 (P268S/L1007fsinsC NOD2): greatly reduced levels of NF-κB activation; also recorded: did not respond at all
induction of the NF-κB-DNA complex (EMSA) (NF-κB; PBMNC from individuals carrying normal or heterozygous NOD2 alleles): resulted in induction of the NF-κB-DNA complex
